Experimental data: US9981925B2, “Substituted benzo[d][1,2,3]triazines as p70S6K inhibitors” (Merck Patent GmbH, priority 2012, dated 2018)
Values belong to the compound of their own block, whether it stands above or below them.

Experiments:
[1] = target: p70S6K (T412E mutant) (Homo sapiens (Human), UniProt P23443, T412E); experiment: p70S6K enzyme assay; format: biochemical; conditions: 24 μM ATP, 90 min at 25° C., Caliper mobility shift
Description: p70S6K inhibitor compounds were diluted and plated in 96 well plates. A reaction mixture including the following components were then added to the compound plate to initiate the enzyme reaction: p70S6K (3 nM, T412E mutant, Millipore) was mixed with 24 μM ATP in an assay buffer containing 100 mM Hepes (pH 7.5), 5 mM MgCl2, 1 mM DTT, 0.015% Brij and 1 μM of the substrate peptide FITC-AHA-[…]-OH (derived from the S6 ribosomal protein sequence, FITC=fluorescein isothiocyanate, AHA=6-aminohexanoic acid). The reaction was incubated for 90 min at 25° C., before the addition of 10 mM EDTA to stop the reaction. The proportion of substrate and product (phosphorylated) peptide was analyzed on a Caliper Life Sciences Lab Chip 3000, using a pressure of −1.4 psi, and upstream and downstream voltages of −3000 and −700, respectively. Product peaks were resolved before substrate peaks on the resulting chromatograms. To assess the inhibitory potential of the compounds, IC50 values were determined, as shown above.

[2] = target: His-AKT (Full Length) (Homo sapiens (Human), UniProt P31749); experiment: AKT/PKB kinase assay; format: biochemical; conditions: 160 μM ATP, 90 min at 25° C., Caliper mobility shift
Description: In order to measure AKT inhibition in the Caliper Life Sciences LC3000, a TTP Mosquito liquid handling instrument was used to place 125 nl of the appropriate concentration of inhibitor in 100% DMSO (for a dose response curve calculation) into each well of a 384-well plate. To this reaction, the following components were added to a final volume of 12.5 μl: • 0.1 ng/μl His-AKT (Full Length) (Invitrogen, Part # P2999, Lot #641228C); • 160 μM ATP (Fluka, 02055); • 1 mM DTT (Sigma, D0632); • 1 mM MgCl2 (Sigma, M1028); • 1 μM substrate peptide (sequence FITC-AHA-[…]-NH2), synthesized by • Tufts Peptide Synthesis service; • 100 mM HEPES pH 7.5 (Calbiochem, 391338); and • 0.015% Brij-35 (Sigma, B4184).
The reaction was incubated for 90 min at 25° C., and then stopped by the addition of 70 μl of Stop buffer (100 mM HEPES pH 7.5, 0.015% Brij-35, 10 mM EDTA (Sigma, E7889)). The plate was read on a Caliper LC 3000 in an Off-Chip mobility shift assay format, using the following parameters for a 12-sipper chip: screening pressure −2.3 psi, upstream voltage −500, and downstream voltage −3000. These conditions cause unphosphorylated substrate and phosphorylated product peptide to resolve as separate peaks allowing direct measurement of percentage of conversion of substrate to product. The percent conversion was plotted against concentration of inhibitor to produce a sigmoidal dose response curve, from which an IC50 was calculated.

p70S6K (T412E mutant), sequence (P23443 whole entry T412E): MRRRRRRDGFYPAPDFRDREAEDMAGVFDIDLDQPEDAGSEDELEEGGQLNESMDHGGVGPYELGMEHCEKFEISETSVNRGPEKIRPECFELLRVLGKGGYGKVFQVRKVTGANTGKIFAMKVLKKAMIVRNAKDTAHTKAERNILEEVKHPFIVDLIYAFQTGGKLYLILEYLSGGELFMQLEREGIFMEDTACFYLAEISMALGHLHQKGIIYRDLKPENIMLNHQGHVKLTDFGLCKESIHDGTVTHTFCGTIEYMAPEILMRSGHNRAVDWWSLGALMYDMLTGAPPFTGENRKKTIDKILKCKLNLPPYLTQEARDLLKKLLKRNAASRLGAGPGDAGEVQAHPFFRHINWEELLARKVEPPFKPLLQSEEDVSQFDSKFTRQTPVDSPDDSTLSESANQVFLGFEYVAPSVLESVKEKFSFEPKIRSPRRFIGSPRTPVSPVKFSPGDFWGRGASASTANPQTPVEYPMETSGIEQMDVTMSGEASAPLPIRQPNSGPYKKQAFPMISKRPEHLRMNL
His-AKT (Full Length), sequence (P31749 whole entry): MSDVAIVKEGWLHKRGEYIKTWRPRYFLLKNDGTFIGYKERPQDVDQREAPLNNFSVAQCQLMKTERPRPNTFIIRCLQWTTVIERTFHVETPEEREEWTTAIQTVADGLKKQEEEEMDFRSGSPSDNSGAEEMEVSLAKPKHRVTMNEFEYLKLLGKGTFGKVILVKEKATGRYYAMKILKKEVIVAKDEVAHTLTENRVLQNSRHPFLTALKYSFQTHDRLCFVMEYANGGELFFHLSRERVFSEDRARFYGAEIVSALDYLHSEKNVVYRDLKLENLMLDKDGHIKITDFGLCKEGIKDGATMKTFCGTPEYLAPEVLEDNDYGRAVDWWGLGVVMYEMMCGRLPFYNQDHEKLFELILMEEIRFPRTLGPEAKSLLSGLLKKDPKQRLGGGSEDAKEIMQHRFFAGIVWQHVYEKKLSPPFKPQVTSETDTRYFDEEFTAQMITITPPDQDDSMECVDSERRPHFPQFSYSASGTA

Compound: CCNC[C@@H](Nc1ncnc2c(C(N)=O)ccnc12)c1cc(F)c(F)cc1F [Compound 58, 4-[(S)-2-Ethylamino-1-(2,4,5-trifluoro-phenyl)-ethylamino]-pyrido[3,2-d]pyrimidine-8-carboxylic Acid Amide]
- IC50 [1]: 25 to 100 nM
- IC50 [2]: 101 to 500 nM

Compound: CC(C)NC[C@@H](Nc1ncnc2c(C(N)=O)ccnc12)c1ccc(F)c(C(F)(F)F)c1 [Compound 52, 4-[(S)-1-(4-Fluoro-3-trifluoromethyl-phenyl)-2-isopropylamino-ethylamino]-pyrido[3,2-d]pyrimidine-8-carboxylic Acid Amide]
- IC50 [1]: 25 to 100 nM
- IC50 [2]: 101 to 500 nM

Compound: CCNC[C@@H](Nc1ncnc2c(C(N)=O)ccnc12)c1ccc(F)c(C(F)(F)F)c1 [Compound 56, 4-[(S)-2-Ethylamino-1-(4-fluoro-3-trifluoromethyl-phenyl)-ethylamino]-pyrido[3,2-d]pyrimidine-8-carboxylic Acid Amide]
- IC50 [1]: < 25 nM
- IC50 [2]: 25 to 100 nM

Compound: CNC[C@@H](Nc1ncnc2c(C(N)=O)ccnc12)c1cccc(Br)c1 [Compound 65, 4-[(S)-1-(3-Bromo-phenyl)-2-methylamino-ethylamino]-pyrido[3,2-d]pyrimidine-8-carboxylic Acid Amide]
- IC50 [1]: < 25 nM
- IC50 [2]: < 25 nM

Compound: CNC[C@@H](Nc1ncnc2c(C(N)=O)ccnc12)c1ccc(Cl)c(C)c1 [Compound 44, 4-[(S)-1-(4-Chloro-3-methyl-phenyl)-2-methylamino-ethylamino]-pyrido[3,2-d]pyrimidine-8-carboxylic Acid Amide]
- IC50 [1]: < 25 nM
- IC50 [2]: < 25 nM

Compound: CNC[C@@H](Nc1ncnc2c(C(N)=O)ccnc12)c1ccc(F)c(Br)c1 [Compound 28, 4-[(S)-1-(3-Bromo-4-fluoro-phenyl)-2-methylamino-ethylamino]-pyrido[3,2-d]pyrimidine-8-carboxylic Acid Amide]
- IC50 [1]: < 25 nM
- IC50 [2]: < 25 nM

Compound: COc1cc([C@@H](CN(C)C)Nc2nnnc3c(C(N)=O)cccc23)ccc1Cl [Compound 11, (S)-4-((1-(4-chloro-3-methoxyphenyl)-2-(dimethylamino)ethyl)amino)-benzo[d][1,2,3]triazine-8-carboxamide]
- IC50 [1]: 25 to 100 nM
- IC50 [2]: 101 to 500 nM

Compound: CNC[C@@H](Nc1ncnc2c(C(N)=O)ccnc12)c1ccc(F)c(C(F)F)c1 [Compound 51, 4-[(S)-1-(3-Difluoromethyl-4-fluoro-phenyl)-2-methylamino-ethylamino]-pyrido[3,2-d]pyrimidine-8-carboxylic Acid Amide]
- IC50 [1]: < 25 nM
- IC50 [2]: < 25 nM

Compound: NC(=O)c1cccc2c(NCc3ccc(C(F)(F)F)cn3)nnnc12 [Compound 7, 4-(((5-(trifluoromethyl)pyridin-2-yl)methyl)amino)benzo[d][1,2,3]triazine-8-carboxamide]
- IC50 [1]: > 1000 nM
- IC50 [2]: > 1000 nM

Compound: NC(=O)c1ccnc2c(N[C@H](CN3CCC3)c3ccc(OC(F)(F)F)c(Cl)c3)ncnc12 [Compound 73, 4-[(S)-2-Azetidin-1-yl-1-(3-chloro4-trifluoromethoxy-phenyl)-ethylamino]-pyrido[3,2-d]pyrimidine-8-carboxylamide]
- IC50 [1]: < 25 nM
- IC50 [2]: 25 to 100 nM

Compound: NC(=O)c1cccc2c(NCc3cccc(F)c3)nnnc12 [Compound 9, 4-((3-fluorobenzyl)amino)benzo[d][1,2,3]triazine-8-carboxamide]
- IC50 [1]: 501 to 1000 nM
- IC50 [2]: > 1000 nM

Compound: CCNC[C@@H](Nc1ncnc2c(C(N)=O)ccnc12)c1ccc(Cl)c(C(F)(F)F)c1 [Compound 33, 4-[(S)-1-(4-Chloro-3-trifluoromethyl-phenyl)-2-ethylamino-ethylamino]-pyrido[3,2-d]pyrimidine-8-carboxylic Acid Amide]
- IC50 [1]: < 25 nM
- IC50 [2]: 25 to 100 nM

Compound: CN(C)C[C@@H](Nc1ncnc2c(C(N)=O)ccnc12)c1ccc(F)c(C(F)(F)F)c1 [Compound 50, 4-[(S)-2-Dimethylamino-1-(4-fluoro-3-trifluoromethyl-phenyl)-ethylamino]-pyrido[3,2-d]pyrimidine-8-carboxylic Acid Amide]
- IC50 [1]: < 25 nM
- IC50 [2]: 25 to 100 nM

Compound: NC(=O)c1ccnc2c(N[C@H](CN3CC(O)C3)c3ccc(Cl)c(C(F)(F)F)c3)ncnc12 [Compound 70, 4-[(S)-1-(4-Chloro-3-trifluoromethyl-phenyl)-2-(3-hydroxy-azetidin-1-yl)-ethylamino]-pyrido[3,2-d]pyrimidine-8-carboxylic Acid Amide]
- IC50 [1]: < 25 nM
- IC50 [2]: 25 to 100 nM

Now from value to compound:

- IC50 [1]: < 25 nM
- IC50 [2]: < 25 nM
Compound: CNC[C@@H](Nc1ncnc2c(C(N)=O)ccnc12)c1ccc(C(F)(F)F)c(C(F)(F)F)c1 [Compound 43, 4-[(S)-1-(3,4-Bis-trifluoromethyl-phenyl)-2-methylamino-ethylamino]-pyrido[3,2-d]pyrimidine-8-carboxylamide]

- IC50 [1]: 25 to 100 nM
- IC50 [2]: > 1000 nM
Compound: CNC[C@@H](Nc1ncnc2c(C(N)=O)nccc12)c1ccc(C(C)C)cc1 [Compound 40, 4-[(S)-1-(4-Isopropyl-phenyl)-2-methylamino-ethylamino]-pyrido[3,4-d]pyrimidine-8-carboxylic Acid Amide]

- IC50 [1]: < 25 nM
- IC50 [2]: 501 to 1000 nM
Compound: CC(C)c1ccc([C@@H](CN2CCC2)Nc2ncnc3c(C(N)=O)ccnc23)cc1 [Compound 37, 4-[(S)-2-Azetidin-1-yl-1-(4-isopropyl-phenyl)-ethylamino]-pyrido[3,2-d]pyrimidine-8-carboxylic Acid Amide]

- IC50 [1]: < 25 nM
- IC50 [2]: 101 to 500 nM
Compound: N#Cc1cc([C@@H](CN2CCC2)Nc2nnnc3c(C(N)=O)cccc23)ccc1Cl [Compound 18, (S)-4-((2-(azetidin-1-yl)-1-(4-chloro-3-cyanophenyl)ethyl)amino)benzo[d][1,2,3]triazine-8-carboxamide]

- IC50 [1]: < 25 nM
- IC50 [2]: < 25 nM
Compound: NC(=O)c1cccc2c(N[C@H](CN3CCC3)c3ccc(Cl)c(Cl)c3)nnnc12 [Compound 16, (S)-4-((2-(azetidin-1-yl)-1-(3,4-dichlorophenyl)ethyl)amino)benzo[d][1,2,3]triazine-8-carboxamide]

- IC50 [1]: < 25 nM
- IC50 [2]: 501 to 1000 nM
Compound: NC(=O)c1ccnc2c(NC3CNCCC3c3ccc(C(F)(F)F)cc3)ncnc12 (stereo not shown) [Compound 25, 4-((4-(4-(trifluoromethyl)phenyl)piperidin-3-yl)amino)pyrido[3,2-d]pyrimidine-8-carboxamide]

- IC50 [1]: < 25 nM
- IC50 [2]: < 25 nM
Compound: Cc1cc([C@@H](CN2CCC2)Nc2ncnc3c(C(N)=O)ccnc23)ccc1Cl [Compound 46, 4-[(S)-2-Azetidin-1-yl-1-(4-chloro-3-methyl-phenyl)-ethylamino]-pyrido[3,2-d]pyrimidine-8-carboxylic Acid Amide]

- IC50 [1]: < 25 nM
- IC50 [2]: 101 to 500 nM
Compound: COc1cc([C@@H](CN2CCC2)Nc2nnnc3c(C(N)=O)cccc23)ccc1Cl [Compound 10, (S)-4-((2-(azetidin-1-yl)-1-(4-chloro-3-methoxyphenyl)ethyl)amino)-benzo[d][1,2,3]triazine-8-carboxamide]

- IC50 [1]: < 25 nM
- IC50 [2]: < 25 nM
Compound: CNC[C@@H](Nc1ncnc2c(C(N)=O)ccnc12)c1cccc(Cl)c1 [Compound 64, 4-[(S)-1-(3-Chloro-phenyl)-2-methylamino-ethylamino]-pyrido[3,2-d]pyrimidine-8-carboxylic Acid Amide]

- IC50 [1]: < 25 nM
- IC50 [2]: 25 to 100 nM
Compound: CNC[C@@H](Nc1ncnc2c(C(N)=O)ccnc12)c1ccc(OC(F)(F)F)c(Cl)c1 [Compound 74, 4-[(S)-1-(3-Chloro-4-trifluoromethoxy-phenyl)-2-methylamino-ethylamino]-pyrido[3,2-d]pyrimidine-8-carboxylamide]

- IC50 [1]: < 25 nM
- IC50 [2]: < 25 nM
Compound: CNC[C@@H](Nc1ncnc2c(C(N)=O)ccnc12)c1cccc(F)c1 [Compound 66, 4-[(S)-1-(3-Fluoro-phenyl)-2-methylamino-ethylamino]-pyrido[3,2-d]pyrimidine-8-carboxylic Acid Amide]

- IC50 [1]: 501 to 1000 nM
- IC50 [2]: > 1000 nM
Compound: NC(=O)c1cccc2c(NCc3ccccc3)nnnc12 [Compound 6, 4-(benzylamino)benzo[d][1,2,3]triazine-8-carboxamide]
